Test results as given in PubChem BioAssay (NCI).
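Briefly, cells in 96-well plates were exposed to five compound concentrations for 48 h, and endpoints were estimated by linear interpolation. TGI marks complete inhibition of growth.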

Tests used:
Assay in all cases: NCI-60 cell line screen, 48 h
HOP-92 NSCLC = system: HOP-92 NSCLC
KM12 colon = system: KM12 colon
ACHN renal = system: ACHN renal
A498 renal = system: A498 renal
HT29 colon = system: HT29 colon
EKVX NSCLC = system: EKVX NSCLC
SN12C renal = system: SN12C renal
CCRF-CEM leukemia = system: CCRF-CEM leukemia
LOX IMVI melanoma = system: LOX IMVI melanoma
KM20L2 colon = system: KM20L2 colon
HOP-62 NSCLC = system: HOP-62 NSCLC
NCI-H226 lung = system: NCI-H226 lung
SNB-75 CNS = system: SNB-75 CNS
M14 melanoma = system: M14 melanoma
HCC-2998 colon = system: HCC-2998 colon
NCI/ADR-RES ovarian = system: NCI/ADR-RES ovarian
SNB-19 CNS = system: SNB-19 CNS
BT-549 breast = system: BT-549 breast
MCF7 breast = system: MCF7 breast
SW-620 colon = system: SW-620 colon

Compound	TGI (HOP-92 NSCLC) [µM]	TGI (KM12 colon) [µM]	TGI (ACHN renal) [µM]	TGI (A498 renal) [µM]	TGI (HT29 colon) [µM]	TGI (EKVX NSCLC) [µM]	TGI (SN12C renal) [µM]	TGI (CCRF-CEM leukemia) [µM]	TGI (LOX IMVI melanoma) [µM]	TGI (KM20L2 colon) [µM]	TGI (HOP-62 NSCLC) [µM]	TGI (NCI-H226 lung) [µM]	TGI (SNB-75 CNS) [µM]	TGI (M14 melanoma) [µM]	TGI (HCC-2998 colon) [µM]	TGI (NCI/ADR-RES ovarian) [µM]	TGI (SNB-19 CNS) [µM]	TGI (BT-549 breast) [µM]	TGI (MCF7 breast) [µM]	TGI (SW-620 colon) [µM]
CCn1c(SC(C)C(=O)c2c(C)n(C)n(-c3ccccc3)c2=O)nc2ccccc2c1=O (stereo not drawn)	> 100	> 100	> 100	> 100	> 100	> 100	> 100	> 100	> 100	> 100	> 100	> 100	> 100	> 100						
CCCCCc1cc2cc3c(c(O)c2c(=O)[nH]1)C1(CCC3)C(O)=c2c(=O)c3c(=O)cc(OC)c(=O)c=3c(=O)c2=C1O (stereo not drawn)	1.3	4.22	2.25	4.58	3.11	2.83	3.91	> 18.7	2.85		7.67	4.21	3.67	3.33	4.42	15.3	3.86	3.33	2.06	3.04
COc1ccc(/C=C/C(=O)c2cc(C(C)(C)C)c(O)c(C(C)(C)C)c2)cc1OC	> 100	> 59.4	99.3	> 79.7	60	> 100	65.5	11.8	29.3		> 100	43	13.5	> 100	7.74	49.7	64.1	> 77.6	32.4	> 100
COc1cc2oc(=O)cc(C)c2cc1O	> 100	> 100	> 100	> 100	> 100	> 100	> 100	> 100	> 100		> 100	> 100	> 100	> 100	> 100	> 100	> 100	> 100	> 100	> 100
C(=N\Nc1ccc(-c2nc3ccccc3[nH]2)cc1)/c1c(-c2ccc(Cc3ccccc3)cc2)[nH]c2ccccc12	25.7	> 41.3	> 79.8	33.3	> 57.9	> 100	> 100	> 100	23		> 100	> 100	41.2	> 54.4	30.9	52.8	> 77.3	38	> 48.8	> 100
CCO[C@@]1(COCc2ccccc2)OC(=O)C[C@@H]1N1C(=O)OC[C@@H]1c1ccccc1	> 100	> 100	> 100	> 100	> 100	> 100	> 100	> 100	> 100		73	> 100	> 100	> 100	> 100	> 100	> 100	> 100	> 100	> 100
COC(=O)/C=C\C(C#N)(C#N)N=Cc1ccccc1	3.74	33.4	6.35	33.1	19.4	27.3	26.6	2.4	5.72		34	21	14.5	5.41	35.1	9.03	> 58.4	10.8	5.73	5.54
O=C(c1ccccc1)n1cc(-c2ccccc2)c2c(=O)[nH]cnc21	> 100	> 100	> 100	> 100	> 100	> 100	> 100	> 100	> 100		> 100	> 100	> 100	> 100	> 100	> 100	> 100	> 100	> 100	> 100
CCCC(C)n1c(C)nc2c1C(=O)c1ccccc1C2=O (stereo not drawn)	66.8	> 100	95.8		> 100	> 100	> 100	> 100	23.6	> 100	> 100	> 100	> 100	93.7	> 100		> 100			> 100
COc1cc(CNc2cnc3cc(N)ccc3n2)cc(OC)c1OC	> 100	> 100	> 100	> 100	55.8	> 100	> 100	> 100	> 100	37.7	> 100		> 100	74.3	> 100		> 100			> 100
COC(=O)C1=C(OC(=O)/C=C/c2ccccc2)C(C(=O)OC)[C@@]2(O)[C@@H](C(=O)OC)[C@H](C)C[C@@H]1[C@@H]2C(=O)OC (stereo partly drawn)	48	> 100	> 100	36.7	> 100	65.2	41.7	> 100	93.2		48.2	> 100	73.1	> 100	48.7	41.5	> 100	56.1	91.4	> 100
Cc1nc2c(o1)C(=Nc1ccccc1)c1ccccc1C2=O	25.9	30.9	19.6	54.4	35.9	27.1	22.8	45.9	12.1	31.2	28.1		23.6	21.4	32.9		23.7			23.2
C=CC(OC(C)=O)c1ccc(OC(=O)C(C)C)c(OC)c1 (stereo not drawn)	11.5	7.2	10.4	31	6.09	16.6	15.2	5.03	5.18		28.4	39.8	13	17.3	29.5	60.8	24.6	16.4	5.54	7.69
